Molecular target: T1, S. enterica MTAN (SeMTAN) (Salmonella choleraesuis, UniProt Q57T48)
T1 sequence (Q57T48 1-232): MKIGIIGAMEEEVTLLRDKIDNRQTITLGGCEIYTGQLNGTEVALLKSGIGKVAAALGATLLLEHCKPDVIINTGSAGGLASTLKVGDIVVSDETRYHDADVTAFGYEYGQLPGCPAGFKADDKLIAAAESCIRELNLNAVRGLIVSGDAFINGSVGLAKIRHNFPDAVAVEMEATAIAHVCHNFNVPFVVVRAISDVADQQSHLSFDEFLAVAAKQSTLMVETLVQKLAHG
Assay: slow-onset inhibition constant
Format: biochemical
Settings: for ΔG (Gibbs free energy): generated from Ki* using ΔG = RT ln Ki*; for ΔΔG: methylthio-DADMe-ImmA as reference

With `CSC[C@H]1CN(Cc2c[nH]c3c(N)ncnc23)C[C@@H]1O` [Methylthio-DADMe-ImmA, reference compound] the “ΔG (Gibbs free energy)” value was -15.4 ± 0.1 kcal/mol and the ΔΔG was 0 kcal/mol.
`CCCCSC[C@H]1CN(Cc2c[nH]c3c(N)ncnc23)C[C@@H]1O` [Butylthio-DADMe-ImmA, reference compound] was tested, and the “ΔG (Gibbs free energy)” value was -16.1 ± 0.2 kcal/mol and the ΔΔG was -0.7 kcal/mol.
In the case of `Nc1ncnc2c(CN3CC(O)C(CSCCCO)C3)c[nH]c12` (stereo not drawn) [3-Hydroxypropylthio-DADMe-ImmA], the “ΔG (Gibbs free energy)” value is reported as -15.2 ± 0.2 kcal/mol and the ΔΔG is reported as 0.2 kcal/mol.
With `Nc1ncnc2c(CN3CC(O)C(CSCCCCO)C3)c[nH]c12` (stereo not drawn) [4-Hydroxybutylthio-DADMe-ImmA] the “ΔG (Gibbs free energy)” value was -14.8 ± 0.1 kcal/mol and the ΔΔG was 0.6 kcal/mol.
In the case of `Nc1ncnc2c(CN3C[C@H](CSCC[C@H](N)C(=O)O)[C@@H](O)C3)c[nH]c12` [Homocysteine-DADMe-ImmA, reference compound], the “ΔG of binding higher when compared to MT-, DiEGT- and BuT-DADMe-ImmA” value (difference versus the three inhibitors) is reported as 1.5 to 2.2 kcal/mol, the “ΔG (Gibbs free energy)” value is reported as -13.9 ± 0.1 kcal/mol and the ΔΔG is reported as 1.5 kcal/mol.
For `Nc1ncnc2c(CN3CC(O)C(CSCCO)C3)c[nH]c12` (stereo not drawn) [2-Hydroxyethylthio-DADMe-ImmA], the “ΔG (Gibbs free energy)” value was -14.9 ± 0.1 kcal/mol and the ΔΔG was 0.5 kcal/mol.
In the case of `Nc1ncnc2c(CN3CC(O)C(CSCCOCCO)C3)c[nH]c12` (stereo not drawn) [2-(2-hydroxyethoxy)ethylthio-DADMe-ImmA], the “ΔG (Gibbs free energy)” value is reported as -15.4 ± 0.1 kcal/mol and the ΔΔG is reported as 0 kcal/mol.

— PMC3690532 (Structure (London, England : 1993), 2013)
